Experimental data reported in patent US20250346585A1 (Alexion Pharmaceuticals, Inc., priority 2022, published 2025).

These compounds were tested against Human complement C1s enzyme (Homo sapiens (Human), UniProt P09871) (assay: Human C1s enzyme assay). Settings: Human C1s enzyme assay of Example 3; read-out: IC50 (Stars).
Type: biochemical
Procedure, shortened: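 IC50 derived by nonlinear regression of rate versus concentration, with rate taken from A405 kinetics (30 s intervals, 30 min) after adding 100 μM each Z-L-Lys-SBzl and DTNB. C1s from human serum, 1.16 nM, exposed to compound for 5 min at RT beforehand; buffer 50 mM Tris, 1 M NaCl, pH 7.5.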

Human complement C1s enzyme, sequence (P09871 438-688 limits assumed): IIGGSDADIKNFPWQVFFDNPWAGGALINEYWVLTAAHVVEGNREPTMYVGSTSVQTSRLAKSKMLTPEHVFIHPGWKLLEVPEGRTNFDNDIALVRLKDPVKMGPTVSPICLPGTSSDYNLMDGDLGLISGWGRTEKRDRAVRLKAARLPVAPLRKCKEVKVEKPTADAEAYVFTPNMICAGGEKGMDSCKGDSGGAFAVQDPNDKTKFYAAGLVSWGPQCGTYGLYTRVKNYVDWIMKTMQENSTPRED
Human complement C1s enzyme, sequence (P09871 16-437 partner limits assumed): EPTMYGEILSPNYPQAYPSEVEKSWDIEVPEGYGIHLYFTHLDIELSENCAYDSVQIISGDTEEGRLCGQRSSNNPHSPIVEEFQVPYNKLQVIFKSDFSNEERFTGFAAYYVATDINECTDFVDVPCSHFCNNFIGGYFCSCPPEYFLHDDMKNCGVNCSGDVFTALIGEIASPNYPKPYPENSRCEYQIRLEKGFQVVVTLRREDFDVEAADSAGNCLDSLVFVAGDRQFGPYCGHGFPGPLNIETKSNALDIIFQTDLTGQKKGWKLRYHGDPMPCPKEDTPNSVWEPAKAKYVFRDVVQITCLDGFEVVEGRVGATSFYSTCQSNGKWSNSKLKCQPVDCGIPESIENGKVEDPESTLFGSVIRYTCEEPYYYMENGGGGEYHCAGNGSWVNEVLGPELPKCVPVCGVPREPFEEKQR

SMILES	IC50
Cc1ccc(Oc2ccc(C(=O)NCC(=O)N3C[C@H](OC(F)F)C[C@H]3C(=O)NCc3cc(C(=N)N)cs3)cc2)cc1 [Compound 10, (2S,4R)—N-((4-carbamimidoylthiophen-2-yl)methyl)-4-(difluoromethoxy)-1-((4-(p-tolyloxy)benzoyl)glycyl)pyrrolidine-2-carboxamide]	< 100 nM
C[C@H](O)[C@H](O)[C@@H](O)[C@@H](O)CNCC(=O)NCCOC[C@@]12C[C@@H]1N(C(=O)CNC(=O)CCCOc1ccccc1)[C@H](C(=O)N[C@H](C)c1cc(C(=N)N)cs1)C2 [Compound 2, (1S,3S,5R)—N—((R)-1-(4-carbamimidoylthiophen-2-yl)ethyl)-2-((4-phenoxybutanoyl)glycyl)-5-((2-(2-(((2S,3S,4S,5S)-2,3,4,5-tetrahydroxyhexyl)amino)acetamido)ethoxy)methyl)-2-azabicyclo[3.1.0]hexane-3-carboxamide]	< 100 nM
C[C@@H](NC(=O)[C@@H]1CC2(CN1C(=O)CNC(=O)c1ccc3c(c1)-c1ccccc1C3(F)F)OCCO2)c1cc(-c2c[nH]cn2)cs1 [Compound 96, (S)—N—((R)-1-(4-(1H-imidazol-4-yl)thiophen-2-yl)ethyl)-7-((9,9-difluoro-9H-fluorene-3-carbonyl)glycyl)-1,4-dioxa-7-azaspiro[4.4]nonane-8-carboxamide]	100 to 1000 nM
Cc1ccc(-c2ccc(C(=O)NCC(=O)N3CC4(C[C@H]3C(=O)N[C@H](C)c3cc(C(=N)N)cs3)OCCO4)cc2)c(C)c1 [Compound 169, (S)—N—((R)-1-(4-carbamimidoylthiophen-2-yl)ethyl)-7-((2′,4′-dimethyl-[1,1′-biphenyl]-4-carbonyl)glycyl)-1,4-dioxa-7-azaspiro[4.4]nonane-8-carboxamide]	< 100 nM
N=C(N)c1csc(CNC(=O)[C@@H]2CC3(CN2C(=O)CNC(=O)c2ccc4c(c2)-c2ccccc2C4(F)F)OCCO3)c1 [Compound 55, (S)—N-((4-carbamimidoylthiophen-2-yl)methyl)-7-((9,9-difluoro-9H-fluorene-3-carbonyl)glycyl)-1,4-dioxa-7-azaspiro[4.4]nonane-8-carboxamide]	< 100 nM
C[C@H](O)[C@H](O)[C@@H](O)[C@@H](O)CNCC(=O)NCCOC[C@@]12C[C@@H]1N(C(=O)CNC(=O)c1ccc(Oc3ccc(F)cc3)cc1)[C@H](C(=O)N[C@H](C)c1cc(C(=N)N)cs1)C2 [Compound 84, (1S,3S,5R)—N—((R)-1-(4-carbamimidoylthiophen-2-yl)ethyl)-2-((4-(4-fluorophenoxy)benzoyl)glycyl)-5-((2-(2-(((2S,3S,4S,5S)-2,3,4,5-tetrahydroxyhexyl)amino)acetamido)ethoxy)methyl)-2-azabicyclo[3.1.0]hexane-3-carboxamide]	< 100 nM
COC[C@@]12C[C@@H]1N(C(=O)CNC(=O)c1ccc(Oc3ccc(F)cc3)cc1)[C@H](C(=O)N[C@H](C)c1ccc(C(=N)N)s1)C2 [Compound 38, (1S,3S,5R)—N—((R)-1-(5-carbamimidoylthiophen-2-yl)ethyl)-2-((4-(4-fluorophenoxy)benzoyl)glycyl)-5-(methoxymethyl)-2-azabicyclo[3.1.0]-hexane-3-carboxamide]	< 100 nM
C[C@@H](NC(=O)[C@@H]1CC2(CN1C(=O)CNC(=O)c1ccc3c(c1)-c1ccccc1C3(F)F)OCCO2)c1cc(-c2ncc[nH]2)cs1 [Compound 87, (S)—N—((R)-1-(4-(1H-imidazol-2-yl)thiophen-2-yl)ethyl)-7-((9,9-difluoro-9H-fluorene-3-carbonyl)glycyl)-1,4-dioxa-7-azaspiro[4.4]nonane-8-carboxamide]	< 100 nM
C[C@@H](NC(=O)[C@@H]1C[C@@H](OC(F)F)CN1C(=O)CNC(=O)c1ccc(Oc2ccc(Cl)cc2)cc1)c1cc(C(=N)N)cs1 [Compound 43, (2S,4R)—N—((R)-1-(4-carbamimidoylthiophen-2-yl)ethyl)-1-((4-(4-chlorophenoxy)benzoyl)glycyl)-4-(difluoromethoxy)pyrrolidine-2-carboxamide]	< 100 nM

Second part, the compound after the results:

IC50	SMILES
> 1000 nM	Nc1csc(-c2csc(CNC(=O)[C@@H]3CC4(CN3C(=O)CNC(=O)c3ccc(Oc5ccc(F)cc5)cc3)OCCO4)c2)n1 [Compound 184, (S)—N-((4-(4-aminothiazol-2-yl)thiophen-2-yl)methyl)-7-((4-(4-fluorophenoxy)benzoyl)glycyl)-1,4-dioxa-7-azaspiro[4.4]nonane-8-carboxamide]
< 100 nM	C[C@@H](NC(=O)[C@@H]1C[C@@H](S(C)(=O)=O)CN1C(=O)CNC(=O)c1ccc2c(c1)-c1ccccc1C2(C)C)c1cc(C(=N)N)cs1 [Compound 178, (2S,4R)—N—((R)-1-(4-carbamimidoylthiophen-2-yl)ethyl)-1-((9,9-dimethyl-9H-fluorene-3-carbonyl)glycyl)-4-(methylsulfonyl)pyrrolidine-2-carboxamide]

Same assay, conditions: Human complement C1s enzyme 1.16 nM, substrate Z-L-Lys-SBzl 100 μM, assay of Example 3; read-out: IC50 (Stars)

IC50	SMILES
< 100 nM	C[C@@H](NC(=O)[C@@H]1C[C@@H](S(C)(=O)=O)CN1C(=O)CNC(=O)c1ccc2c(c1)-c1ccccc1S2(=O)=O)c1cc(C(=N)N)cs1 [Compound 342, (2S,4R)—N—((R)-1-(4-carbamimidoylthiophen-2-yl)ethyl)-1-((5,5-dioxidodibenzo[b,d]thiophene-2-carbonyl)glycyl)-4-(methylsulfonyl) pyrrolidine-2-carboxamide]
< 100 nM	N=C(N)c1csc(CNC(=O)[C@@H]2CC3(CN2C(=O)CN2Cc4cc(-c5ccc(F)cc5)ccc4C2=O)OCCO3)c1 [Compound 230]
> 1000 nM	O=C(NCC(=O)N1CC2(C[C@H]1C(=O)NCc1cc(Nc3ncc[nH]3)cs1)OCCO2)c1ccc(Oc2ccc(F)cc2)cc1 [Compound 283, (S)-N-((4-((1H-imidazol-2-yl)amino)thiophen-2-yl)methyl)-7-((4-(4-fluorophenoxy)benzoyl)glycyl)-1,4-dioxa-7-azaspiro[4.4]nonane-8-carboxamide]
> 1000 nM	N=C(N)c1csc(C(CN)NC(=O)[C@@H]2C[C@@H](OC(F)F)CN2C(=O)CNC(=O)c2ccc(Oc3ccccc3)cc2)c1 (stereo partly drawn) [Compound 314]
< 100 nM	CS(=O)(=O)[C@@H]1C[C@@H](C(=O)N[C@H](CO)c2cc(C(=N)N)cs2)N(C(=O)CNC(=O)c2ncc(-c3ccccc3)cc2F)C1 [Compound 383, N-(2-((2S,4R)-2-(((R)-1-(4-carbamimidoylthiophen-2-yl)-2-hydroxyethyl)carbamoyl)-4-(methylsulfonyl)pyrrolidin-1-yl)-2-oxoethyl)-3-fluoro-5-phenylpicolinamide]
< 100 nM	CC1c2ccccc2-c2ccc(C(=O)NCC(=O)N3C[C@@](F)(CF)C[C@H]3C(=O)N[C@H](C)c3cc(C(=N)N)cs3)cc21 (stereo partly drawn) [Compound 371, (2S,4R)—N—((R)-1-(4-carbamimidoylthiophen-2-yl)ethyl)-4-fluoro-4-(fluoromethyl)-1-((9-methyl-9H-fluorene-2-carbonyl)glycyl)pyrrolidine-2-carboxamide]
< 100 nM	N=C(N)c1csc(CNC(=O)[C@@H]2CC3(CN2C(=O)CNC(=O)c2ccc(-c4cc(Cl)cc(Cl)c4)cc2)OCCO3)c1 [Compound 208, (S)—N-((4-carbamimidoylthiophen-2-yl)methyl)-7-((3′,5′-dichloro-[1,1′-biphenyl]-4-carbonyl)glycyl)-1,4-dioxa-7-azaspiro[4.4]nonane-8-carboxamide]
< 100 nM	N=C(N)c1csc(CNC(=O)[C@@H]2CC3(CN2C(=O)CNC(=O)c2ccc(-c4ccc(C(=O)O)cc4F)cc2)OCCO3)c1 [Compound 242, (S)-4′-((2-(8-(((4-carbamimidoylthiophen-2-yl)methyl)carbamoyl)-1,4-dioxa-7-azaspiro[4.4]nonan-7-yl)-2-oxoethyl)carbamoyl)-2-fluoro-[1,1′-biphenyl]-4-carboxylic acid]
< 100 nM	Cc1ccc(-c2ccc(C(=O)NCC(=O)N3CC4(C[C@H]3C(=O)NCc3cc(C(=N)N)cs3)OCCO4)cc2)cc1F [Compound 210, (S)—N-((4-carbamimidoylthiophen-2-yl)methyl)-7-((3′-fluoro-4′-methyl-[1,1′-biphenyl]-4-carbonyl)glycyl)-1,4-dioxa-7-azaspiro[4.4]nonane-8-carboxamide]
< 100 nM	COC[C@H]1C[C@@H](C(=O)N[C@H](C)c2cc(C(=N)N)cs2)N(C(=O)CNC(=O)c2ccc3oc4ccccc4c3c2)C1 (relative stereo) [Compound 219, (2S,4S*)—N—((R)-1-(4-carbamimidoylthiophen-2-yl)ethyl)-1-((dibenzo[b,d]furan-2-carbonyl)glycyl)-4-(methoxymethyl)pyrrolidine-2-carboxamide]
< 100 nM	C=C1C[C@@H](C(=O)N[C@H](C)c2cc(C(=N)N)cs2)N(C(=O)CNC(=O)c2ccc3c(c2)-c2ccccc2C3(F)F)C1 [Compound 203, (S)—N—((R)-1-(4-carbamimidoylthiophen-2-yl)ethyl)-1-((9,9-difluoro-9H-fluorene-3-carbonyl)glycyl)-4-methylenepyrrolidine-2-carboxamide]

Same assay, conditions: Human complement C1s enzyme 1.16 nM, substrate Z-L-Lys-SBzl; assay of Example 3; read-out: IC50 (Stars)

SMILES	IC50
C[C@@H](NC(=O)[C@@H]1C[C@]2(COCCCCN(C)C)C[C@@H]2N1C(=O)CNC(=O)c1ccc2c(c1)-c1ccccc1C2(F)F)c1cc(C(=N)N)cs1 [Compound 415, (1S,3S,5R)—N—((R)-1-(4-carbamimidoylthiophen-2-yl)ethyl)-2-((9,9-difluoro-9H-fluorene-3-carbonyl)glycyl)-5-((4-(dimethylamino)butoxy)methyl)-2-azabicyclo[3.1.0]hexane-3-carboxamide]	< 100 nM
N=C(N)c1csc([C@@H](CO)NC(=O)[C@@H]2C[C@](F)(CF)CN2C(=O)CNC(=O)c2ccc3c(c2)C(F)(F)c2ccccc2-3)c1 [Compound 405, (2S,4R)—N—((R)-1-(4-carbamimidoylthiophen-2-yl)-2-hydroxyethyl)-1-((9,9-difluoro-9H-fluorene-2-carbonyl)glycyl)-4-fluoro-4-(fluoromethyl)pyrrolidine-2-carboxamide]	< 100 nM
